Laboratory results as given in ChEMBL document CHEMBL1201862, “PubChem BioAssay data set” (2004).
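Dose response: 5 concentrations. Exposure: 48 h. Format: 96-well plates. Endpoint: linear interpolation; highest concentration if not reached. GI50 = concentration required for 50% inhibition of growth.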 Activity calls are given as the source filed them. Cut-off read from the data, not from the text of the source: active = GI50 up to about 1.1 µM and inactive = higher.

What was measured:
Test in all cases: growth of human tumour cells (NCI), 48 h
[1] = tested on: 786-0
[2] = tested on: A498
[3] = tested on: A549
[4] = tested on: ACHN
[5] = tested on: BT-549
[6] = tested on: CAKI-1
[7] = tested on: CCRF-CEM
[8] = tested on: COLO 205
[9] = tested on: DU-145
[10] = tested on: EKVX
[11] = tested on: HCC 2998
[12] = tested on: HCT-116
[13] = tested on: HCT-15
[14] = tested on: HL-60
[15] = tested on: HOP-62
[16] = tested on: HOP-92
[17] = tested on: HT-29
[18] = tested on: Hs-578T
[19] = tested on: IGROV-1
[20] = tested on: K562
[21] = tested on: KM12
[22] = tested on: M14
[23] = tested on: MCF7
[24] = tested on: MDA-MB-231
[25] = tested on: MDA-MB-435
[26] = tested on: MDA-N
[27] = tested on: MOLT-4
[28] = tested on: Malme-3M
[29] = tested on: NCI-H226
[30] = tested on: NCI-H23
[31] = tested on: NCI-H460
[32] = tested on: NCI-H522
[33] = tested on: NCI/ADR-RES
[34] = tested on: OVCAR-3
[35] = tested on: OVCAR-4
[36] = tested on: OVCAR-5
[37] = tested on: OVCAR-8
[38] = tested on: PC-3
[39] = tested on: RPMI-8226
[40] = tested on: RXF 393
[41] = tested on: SF-268
[42] = tested on: SF-295
[43] = tested on: SF-539
[44] = tested on: SK-MEL-28
[45] = tested on: SK-MEL-2
[46] = tested on: SK-MEL-5
[47] = tested on: SK-OV-3
[48] = tested on: SN12C
[49] = tested on: SNB-19
[50] = tested on: SNB-75
[51] = tested on: SR
[52] = tested on: SW-620
[53] = tested on: T47D
[54] = tested on: TK-10
[55] = tested on: U-251
[56] = tested on: UACC-257
[57] = tested on: UACC-62
[58] = tested on: UO-31
[59] = tested on: LOX IMVI

CCN(CC)CCN1C(=O)c2cccc3cc(N)cc(c23)C1=O
GI50 [1]: 5.32 µM (inactive) | GI50 [2]: 19.1 µM (inactive) | GI50 [3]: 5.57 µM (inactive) | GI50 [4]: 4.94 µM (inactive) | GI50 [5]: 16.1 µM (inactive) | GI50 [6]: 7.28 µM (inactive) | GI50 [7]: 6.28 µM (inactive) | GI50 [8]: 4.41 µM (inactive) | GI50 [9]: 8.45 µM (inactive) | GI50 [10]: 5.02 µM (inactive) | GI50 [11]: 8.61 µM (inactive) | GI50 [12]: 4.16 µM (inactive) | GI50 [13]: 5.43 µM | GI50 [14]: 16.6 µM (inactive) | GI50 [15]: 5.45 µM (inactive) | GI50 [16]: 35.8 µM (inactive) | GI50 [17]: 3.24 µM (inactive) | GI50 [18]: 22.7 µM (inactive) | GI50 [19]: 7.59 µM (inactive) | GI50 [20]: 5.98 µM (inactive) | GI50 [21]: 9.73 µM (inactive) | GI50 [22]: 13.3 µM (inactive) | GI50 [23]: 4.39 µM (inactive) | GI50 [24]: 16.9 µM (inactive) | GI50 [25]: 10.2 µM (inactive) | GI50 [26]: 10.3 µM (inactive) | GI50 [27]: 3.46 µM (inactive) | GI50 [28]: 13 µM (inactive) | GI50 [29]: 16.6 µM (inactive) | GI50 [30]: 7.23 µM (inactive) | GI50 [31]: 3.98 µM (inactive) | GI50 [32]: 6.43 µM (inactive) | GI50 [33]: 7.21 µM (inactive) | GI50 [34]: 12.7 µM (inactive) | GI50 [35]: 12.4 µM (inactive) | GI50 [36]: 3.06 µM (inactive) | GI50 [37]: 6.68 µM (inactive) | GI50 [38]: 16.1 µM (inactive) | GI50 [39]: 7.35 µM (inactive) | GI50 [40]: 14.2 µM (inactive) | GI50 [41]: 12.6 µM (inactive) | GI50 [42]: 9.12 µM (inactive) | GI50 [43]: 5.09 µM (inactive) | GI50 [44]: 19.3 µM (inactive) | GI50 [45]: 18.9 µM (inactive) | GI50 [46]: 12.9 µM (inactive) | GI50 [47]: 8.53 µM (inactive) | GI50 [48]: 4.31 µM (inactive) | GI50 [49]: 13.6 µM (inactive) | GI50 [50]: 15.8 µM (inactive) | GI50 [51]: 3.32 µM (inactive) | GI50 [52]: 4.91 µM (inactive) | GI50 [53]: 18.7 µM (inactive) | GI50 [54]: 17.9 µM (inactive) | GI50 [55]: 9.48 µM (inactive) | GI50 [56]: 10.7 µM (inactive) | GI50 [57]: 11.8 µM (inactive) | GI50 [58]: 5.89 µM (inactive)

COC(=O)c1ccc(/C=C/C2=CC(=O)C=CC2=O)cc1
GI50 [1]: 11.4 µM (inactive) | GI50 [2]: 18.7 µM (inactive) | GI50 [3]: > 63.5 µM (inactive) | GI50 [4]: 14.7 µM (inactive) | GI50 [5]: 5.81 µM (inactive) | GI50 [6]: 13.8 µM (inactive) | GI50 [7]: 2.4 µM (inactive) | GI50 [8]: 18.7 µM (inactive) | GI50 [9]: 45.1 µM (inactive) | GI50 [10]: 19.1 µM (inactive) | GI50 [11]: 20.7 µM (inactive) | GI50 [12]: 15.1 µM (inactive) | GI50 [13]: 16.1 µM | GI50 [14]: 2.37 µM (inactive) | GI50 [15]: 50.8 µM (inactive) | GI50 [16]: 13.5 µM (inactive) | GI50 [17]: 21.5 µM (inactive) | GI50 [18]: 44.6 µM (inactive) | GI50 [19]: 16.7 µM (inactive) | GI50 [20]: 2.43 µM (inactive) | GI50 [21]: 14.4 µM (inactive) | GI50 [59]: 6.14 µM (inactive) | GI50 [22]: 24.7 µM (inactive) | GI50 [23]: 8.57 µM (inactive) | GI50 [24]: 10.9 µM (inactive) | GI50 [25]: 17.4 µM (inactive) | GI50 [26]: 41.7 µM (inactive) | GI50 [27]: 2.74 µM (inactive) | GI50 [28]: 17.4 µM (inactive) | GI50 [29]: 17.6 µM (inactive) | GI50 [30]: 18.1 µM (inactive) | GI50 [31]: 23.9 µM (inactive) | GI50 [32]: 1.8 µM (inactive) | GI50 [33]: 22.4 µM (inactive) | GI50 [34]: 9.73 µM (inactive) | GI50 [35]: 19.9 µM (inactive) | GI50 [36]: 19.9 µM (inactive) | GI50 [37]: 16.8 µM (inactive) | GI50 [38]: 12.8 µM (inactive) | GI50 [39]: 1.01 µM (active) | GI50 [40]: 20.4 µM (inactive) | GI50 [41]: 16.7 µM (inactive) | GI50 [42]: 29.6 µM (inactive) | GI50 [43]: 10.5 µM (inactive) | GI50 [44]: 20.8 µM (inactive) | GI50 [45]: 24 µM (inactive) | GI50 [46]: 20.8 µM (inactive) | GI50 [48]: 18.9 µM (inactive) | GI50 [49]: 10.5 µM (inactive) | GI50 [50]: 32.8 µM (inactive) | GI50 [51]: 3.3 µM (inactive) | GI50 [52]: 16.8 µM (inactive) | GI50 [53]: 6.35 µM (inactive) | GI50 [54]: 21.2 µM (inactive) | GI50 [55]: 17.3 µM (inactive) | GI50 [56]: 17.1 µM (inactive) | GI50 [57]: 19.4 µM (inactive) | GI50 [58]: 11.4 µM (inactive)
